Assay results as given in US20230115176A1 (Ra Pharmaceuticals, Inc., priority 2019, published 2023).
pIC50, pKd: −log10 of the molar value. Read-outs that look alike come from different tables or passages of the source.

How the values were obtained:
[1] = biological target: T1, Human C5 (Homo sapiens, UniProt P01031); assay: Surface plasmon resonance (SPR), immobilized human C5 (Example 9, Table 18); type: binding
T1 construct: purchased Complement Technology
Description: Morrison and Boyd in “Organic Chemistry”, 6th edition, Prentice Hall (1992)] and validated for proper structure by mass spectrometry.

[2] = biological target: purified human C5 (Homo sapiens, UniProt P01031); assay: Red blood cell (RBC) hemolysis assay, optical, absorbance 412 nm (Example 10, Table 19); type: cell-based; details: antibody-sensitized sheep erythrocytes, […] human C5 depleted sera
[3] = immobilized human C5, equilibrium dissociation constant, read-out: SPR C5 EQ KD
[4] = 0.5 nM purified human C5, absorbance 412 nm, read-out: RBC Hemolysis IC50
[5] = SPR, human C5 immobilized, read-out: equilibrium dissociation constant for interaction with C5
[6] = 0.5 nM human C5, read-out: IC50

purified human C5, sequence (P01031 19-1676): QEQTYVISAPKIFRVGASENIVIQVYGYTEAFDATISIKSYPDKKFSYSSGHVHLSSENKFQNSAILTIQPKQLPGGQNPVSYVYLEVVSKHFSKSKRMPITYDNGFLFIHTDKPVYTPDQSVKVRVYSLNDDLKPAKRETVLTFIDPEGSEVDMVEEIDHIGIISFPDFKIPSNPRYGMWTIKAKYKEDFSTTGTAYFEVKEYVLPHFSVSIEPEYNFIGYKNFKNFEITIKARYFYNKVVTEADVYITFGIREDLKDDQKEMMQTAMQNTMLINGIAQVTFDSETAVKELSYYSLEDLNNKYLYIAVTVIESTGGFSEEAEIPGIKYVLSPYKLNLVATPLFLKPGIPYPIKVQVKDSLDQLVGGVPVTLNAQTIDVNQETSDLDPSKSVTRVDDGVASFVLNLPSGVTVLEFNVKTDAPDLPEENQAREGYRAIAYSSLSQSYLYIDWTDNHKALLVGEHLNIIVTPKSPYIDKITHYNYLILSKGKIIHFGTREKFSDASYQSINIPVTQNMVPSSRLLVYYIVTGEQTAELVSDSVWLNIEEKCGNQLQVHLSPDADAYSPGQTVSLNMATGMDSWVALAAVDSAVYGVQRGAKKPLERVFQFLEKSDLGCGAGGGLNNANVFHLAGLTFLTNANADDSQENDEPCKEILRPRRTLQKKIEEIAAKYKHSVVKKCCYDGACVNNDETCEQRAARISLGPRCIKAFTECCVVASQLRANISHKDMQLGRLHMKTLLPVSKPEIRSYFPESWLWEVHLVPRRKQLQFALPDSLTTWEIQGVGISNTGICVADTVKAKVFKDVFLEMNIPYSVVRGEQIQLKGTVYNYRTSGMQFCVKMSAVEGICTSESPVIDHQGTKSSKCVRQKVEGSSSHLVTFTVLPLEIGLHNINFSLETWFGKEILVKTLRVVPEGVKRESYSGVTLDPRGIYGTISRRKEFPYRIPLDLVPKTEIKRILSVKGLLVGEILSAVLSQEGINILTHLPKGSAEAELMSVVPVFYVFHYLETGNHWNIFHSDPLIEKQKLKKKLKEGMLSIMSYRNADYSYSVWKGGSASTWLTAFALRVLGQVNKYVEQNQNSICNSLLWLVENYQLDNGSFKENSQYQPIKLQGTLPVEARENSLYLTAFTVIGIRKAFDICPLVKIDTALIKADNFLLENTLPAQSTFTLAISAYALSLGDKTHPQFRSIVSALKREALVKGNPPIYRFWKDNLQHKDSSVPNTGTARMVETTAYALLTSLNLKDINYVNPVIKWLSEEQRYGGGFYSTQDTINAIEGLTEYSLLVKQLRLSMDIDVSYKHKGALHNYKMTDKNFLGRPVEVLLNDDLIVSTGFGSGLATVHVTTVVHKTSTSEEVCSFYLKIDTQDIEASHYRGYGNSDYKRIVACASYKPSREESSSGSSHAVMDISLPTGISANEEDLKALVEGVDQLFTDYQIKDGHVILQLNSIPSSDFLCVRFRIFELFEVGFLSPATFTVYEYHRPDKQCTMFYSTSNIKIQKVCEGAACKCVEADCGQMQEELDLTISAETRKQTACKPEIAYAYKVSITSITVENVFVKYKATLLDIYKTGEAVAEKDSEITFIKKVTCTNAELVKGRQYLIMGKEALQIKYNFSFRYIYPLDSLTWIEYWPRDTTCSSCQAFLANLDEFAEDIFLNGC
T1 sequence (P01031 19-1676): as above

| SMILES | pKd [1, 3] | pIC50 [2, 4] | pKd [1, 5] | pIC50 [2, 6] |
| --- | --- | --- | --- | --- |
| COc1ccc(NC(=O)NCc2ccnc(NCCN(C)C)c2OC)cc1OCCCC(C)C [Compound C5INH-0453] | 7.60 | 7.18 | – | – |
| COc1ccc(NC(=O)NCc2ccc(N3CCN(C)CC3)cc2)cc1OCCCC(C)C [Compound C5INH-0420] | 6.10 | 6.40 | – | – |
| COc1ccc(NC(=O)NC(CO)c2cccc3c2ccn3C)cc1OCCCC(C)C (stereo not shown) [Compound C5INH-0463] | 6.55 | 6.09 | – | – |
| COc1ccc(NC(=O)NCc2ccncc2OCCCN(C)C)cc1OCCCC(C)C [Compound C5INH-0402] | 6.58 | 5.87 | – | – |
| COc1ccc(NC(=O)NCc2cccc3cccnc23)cc1OCCCC(C)C [Compound C5INH-0450] | 6.05 | 6.53 | – | – |
| COc1ccc(NC(=O)NCc2ccnc3c2ccn3C(C)=O)cc1OCCCC(C)C [Compound C5INH-0436] | 6.29 | 5.77 | – | – |
| COCCOc1cc(CNC(=O)Nc2ccc(OC)c(OCCCC(C)C)c2)ccn1 [Compound C5INH-0381] | 6.92 | 5.98 | – | – |
| CC(C)CCCOc1cc(NC(=O)N[C@@H](CO)c2ccccc2)ccc1N [Compound C5INH-0431] | 5.94 | 5.42 | – | – |
| COc1ccc(NCCCN(C)C)cc1CNC(=O)Nc1ccc(OC)c(OCCCC(C)C)c1 [Compound C5INH-0535] | 6.59 | 5.98 | – | – |
| COCc1cccc(CNC(=O)Nc2ccc(OC)c(OCCCC(C)C)c2)c1 [Compound C5INH-0502] | 5.72 | 5.51 | – | – |
| COc1ccc(NC(=O)NCc2ccnc(NCCN3CCOCC3)c2OC)cc1OCCCC(C)C [Compound C5INH-0452] | 7.23 | 7.02 | – | – |
| COc1ccc(NC(=O)NCc2ccccc2OCCC2CCOC2)cc1OCCCC(C)C (stereo not shown) [Compound C5INH-0338] | 6.71 | 5.36 | – | – |
| COc1ccc(NC(=O)NCc2cccc3nc[nH]c23)cc1OCCCC(C)C [Compound C5INH-0317] | 6.72 | 6.50 | – | – |
| COc1ccc(NC(=O)NCc2cc(F)cc3[nH]ccc23)cc1OCCCC(C)C [Compound C5INH-0517] | 7.97 | 6.43 | > 7.70 | – |
| COc1ccc(NC(=O)NCc2ccnc(N)c2)cc1OCCCC(C)C [Compound C5INH-0333] | 7.01 | 6.35 | – | – |
| COCCOc1ccccc1CNC(=O)Nc1ccc(OC)c(OCCCC(C)C)c1 [Compound C5INH-0335] | 6.74 | 5.68 | – | – |
| COc1ccc(NC(=O)NCc2ccccc2N)cc1OCCCC(C)C [Compound C5INH-0343] | 6.10 | 5.52 | – | – |
| COC(=O)c1cc(OC)c(OCCCC(C)C)cc1NC(=O)N[C@@H](CO)c1ccccc1 [Compound C5INH-0397] | 5.69 | 5.86 | – | – |
| COc1ccc(NC(=O)NCc2cccnc2OC)cc1OCCCC(C)C [Compound C5INH-0310] | 7.40 | 6.69 | – | – |
| COc1cc(CC(N)=O)c(NC(=O)N[C@@H](CO)c2ccccc2)cc1OCCCC(C)C [Compound C5INH-0422] | 5.87 | 5.86 | – | – |
| COc1ccc(NC(=O)NCc2ccc3c(c2)OCCO3)cc1OCCCC(C)C [Compound C5INH-0340] | 7.12 | 6.00 | – | – |

| SMILES | pKd [1, 3] | pIC50 [2, 4] | pKd [1, 5] | pIC50 [2, 6] |
| --- | --- | --- | --- | --- |
| COc1cc(F)ccc1CNC(=O)Nc1ccc(OC)c(OCCCC(C)C)c1 [Compound C5INH-0298] | 6.26 | 6.57 | – | – |
| COc1ccc(NC(=O)NCc2ccnc3c2ccn3CC2CCCN2C)cc1OCCCC(C)C (stereo not shown) [Compound C5INH-0545] | 7.51 | 7.05 | – | – |
| COc1ccc(NC(=O)NCc2cccc(C(=N)N)c2)cc1OCCCC(C)C [Compound C5INH-0303] | 6.15 | 5.53 | – | – |
| COc1ccc(NC(=O)NCc2ccc3c(ccn3CCN(C)C)c2)cc1OCCCC(C)C [Compound C5INH-0414] | 6.30 | 6.11 | – | – |
| COc1ccc(CNC(=O)Nc2ccc(OC)c(OCCCC(C)C)c2)c(OC)c1 [Compound C5INH-0348] | 7.99 | 7.14 | > 7.70 | – |
| COc1cc(CC(=O)O)c(NC(=O)N[C@H](CO)c2ccccc2)cc1OCCCC(C)C [Compound C5INH-0355] | 6.36 | 5.53 | – | – |
| COc1ccc(NC(=O)NCc2ccnc3c2ccn3CCN2CCCC2)cc1OCCCC(C)C [Compound C5INH-0377] | 7.33 | 6.81 | – | – |
| COc1ccc(NC(=O)NC(CO)c2cccc(CNC(=O)OC(C)(C)C)c2)cc1OCCCC(C)C (stereo not shown) [Compound C5INH-0372] | 6.17 | 5.49 | – | – |
| COc1ccc(NC(=O)NCc2ccc(N)nc2)cc1OCCCC(C)C [Compound C5INH-0428] | 6.28 | 5.51 | – | – |
| COc1ccc(NC(=O)NC(CO)c2cccnc2OC)cc1OCCCC(C)C (stereo not shown) [Compound C5INH-0316] | 7.24 | 7.22 | – | – |
| COc1ccc(NC(=O)NC(CO)c2cccc3[nH]ncc23)cc1OCCCC(C)C (stereo not shown) [Compound C5INH-0366] | 7.09 | 6.12 | – | – |
| CNc1cccc(CNC(=O)Nc2ccc(OC)c(OCCCC(C)C)c2)c1 [Compound C5INH-0497] | 5.85 | 6.04 | – | – |
| COc1ccc(NC(=O)NC(CO)c2cccc3[nH]ccc23)cc1OCCCC(C)C (stereo not shown) [Compound C5INH-0356] | 7.23 | 6.95 | – | – |
| COc1ccc(NC(=O)N[C@@H](CO)c2ccccc2)cc1OCCC1CCCCC1 [Compound C5INH-0350] | 6.80 | 6.19 | – | – |
| COc1ccc(NC(=O)N[C@@H](CO)c2ccccc2O)cc1OCCCC(C)C [Compound C5INH-0395] | 8.05 | 7.87 | > 7.70 | > 7.70 |
| COc1ccc(NC(=O)NCc2ccnc3c2ccn3CCNS(C)(=O)=O)cc1OCCCC(C)C [Compound C5INH-0409] | 6.96 | 6.32 | – | – |
| COc1ccc(NC(=O)NCc2cccc3c2ccn3Cc2ccncc2)cc1OCCCC(C)C [Compound C5INH-0518] | 7.85 | 6.52 | > 7.70 | – |
| COc1cnccc1CNC(=O)Nc1ccc(OC)c(OCCCC(C)C)c1 [Compound C5INH-0401] | 7.32 | 6.86 | – | – |
| COc1ccc(NC(=O)N2CCc3ccc(O)cc3C2)cc1OCCCC(C)C [Compound C5INH-0385] | 6.72 | 5.89 | – | – |
| COc1ccc(NC(=O)NC(CO)c2cccc(CNCCN3CCOCC3)c2)cc1OCCCC(C)C (stereo not shown) [Compound C5INH-0379] | 6.30 | 5.44 | – | – |
| COc1ccc(NC(=O)NCc2cncs2)cc1OCCCC(C)C [Compound C5INH-0329] | 5.49 | 5.40 | – | – |

| SMILES | pKd [1, 3] | pIC50 [2, 4] | pKd [1, 5] | pIC50 [2, 6] |
| --- | --- | --- | --- | --- |
| COc1cc(CC(=O)N(C)C)c(NC(=O)N[C@@H](CO)c2ccccc2)cc1OCCCC(C)C [Compound C5INH-0440] | 5.12 | 5.50 | – | – |
| COc1cc(CNC(C)=O)c(NC(=O)NCc2ccnc3c2ccn3CCCN(C)C)cc1OCCCC(C)C [Compound C5INH-0547] | 7.38 | 6.54 | – | – |
| COc1ccc(NC(=O)N(C)Cc2cccc3ccn(C)c23)cc1OCCCC(C)C [Compound C5INH-0492] | 5.68 | 5.58 | – | – |
| COc1ccc(NC(=O)NCc2cccc3[nH]ccc23)cc1OCCCC(C)C [Compound C5INH-0537] | 7.09 | 6.86 | – | – |
| COc1ccc(NC(=O)NC(CO)c2ccccc2)cc1COCCC(C)C (stereo not shown) [Compound C5INH-0477] | 5.95 | 5.84 | – | – |
| COc1ccc(NC(=O)NCc2ccc(N(C)CC(N)=O)cc2)cc1OCCCC(C)C [Compound C5INH-0446] | 6.74 | 5.57 | – | – |
| COc1ccc(NC(=O)NCc2ccnc(N)c2OC)cc1OCCCC(C)C [Compound C5INH-0454] | 6.55 | 6.52 | – | – |
| COc1ccc(NC(=O)NCc2cccc(OC)c2O)cc1OCCCC(C)C [Compound C5INH-0456] | 7.54 | – | – | 8.15 |
| COc1ccc(NC(=O)NCc2ccc3c(c2)OCO3)cc1OCCCC(C)C [Compound C5INH-0330] | 5.54 | 5.57 | – | – |
| COc1ccc(NC(=O)NCc2cccc3c2ccn3CCCN(C)C)cc1OCCCC(C)C [Compound C5INH-0524] | 7.57 | 7.19 | – | – |
| COc1ccc(NC(=O)NCc2ccc3c(N)n[nH]c3c2)cc1OCCCC(C)C [Compound C5INH-0458] | 6.65 | 6.38 | – | – |
| CCOc1ccccc1CNC(=O)Nc1ccc(OC)c(OCCCC(C)C)c1 [Compound C5INH-0339] | 7.28 | 6.06 | – | – |
| COc1ccc(C2CCCN2C(=O)Nc2ccc(OC)c(OCCCC(C)C)c2)cc1 (stereo not shown) [Compound C5INH-0387] | 6.49 | 6.24 | – | – |
| COc1ccc(NC(=O)NCc2c(F)cccc2OC)cc1OCCCC(C)C [Compound C5INH-0326] | 6.59 | 6.11 | – | – |
| COc1ccc(NC(=O)N[C@@H](CO)c2ccccc2)cc1OCCc1cccs1 [Compound C5INH-0349] | 5.92 | 5.82 | – | – |
| COc1ccc(NC(=O)NCc2cccc(CN3CCCC3=O)c2)cc1OCCCC(C)C [Compound C5INH-0323] | 6.14 | 5.72 | – | – |
| COc1ccc(NC(=O)NCc2cccc3c2ccn3CC(=O)N(C)C)cc1OCCCC(C)C [Compound C5INH-0516] | 7.80 | 6.90 | > 7.70 | – |
| COc1ccc(NC(=O)NCc2cccc(O)c2O)cc1OCCCC(C)C [Compound C5INH-0476] | 7.40 | 8.07 | – | > 7.70 |
| COc1cc(CCCCN(C)C)c(NC(=O)N[C@@H](CO)c2ccccc2OC)cc1OCCCC(C)C [Compound C5INH-0539] | 6.37 | 6.21 | – | – |
| COc1ccc(NC(=O)NCc2ccnc(NCCN(C)C)c2)cc1OCCCC(C)C [Compound C5INH-0389] | 6.38 | 5.88 | – | – |
| COc1ccc(NC(=O)N[C@H](CO)c2ccccc2)cc1C(F)C(F)CCC(C)C (stereo partly shown) [Compound C5INH-0406] | 6.12 | 6.17 | – | – |
